According to US20240116985A1, “STAPLED PEPTIDES AND METHODS THEREOF” (priority 2020, published 2024):

What was measured:
[1] = molecular target: T1, full-length beta-Catenin (Uniprot ID P35222) (Homo sapiens, UniProt P35222); experiment: Fluorescence polarization IC50 (beta-catenin / 5FAM-TCF4 10-53 competition); assay type: binding; details: fluorescence polarization; read-out: beta-Catenin FP IC50
T1 construct: 10 nM full-length beta-Catenin (Uniprot ID P35222)
T1 sequence (P35222 1-781): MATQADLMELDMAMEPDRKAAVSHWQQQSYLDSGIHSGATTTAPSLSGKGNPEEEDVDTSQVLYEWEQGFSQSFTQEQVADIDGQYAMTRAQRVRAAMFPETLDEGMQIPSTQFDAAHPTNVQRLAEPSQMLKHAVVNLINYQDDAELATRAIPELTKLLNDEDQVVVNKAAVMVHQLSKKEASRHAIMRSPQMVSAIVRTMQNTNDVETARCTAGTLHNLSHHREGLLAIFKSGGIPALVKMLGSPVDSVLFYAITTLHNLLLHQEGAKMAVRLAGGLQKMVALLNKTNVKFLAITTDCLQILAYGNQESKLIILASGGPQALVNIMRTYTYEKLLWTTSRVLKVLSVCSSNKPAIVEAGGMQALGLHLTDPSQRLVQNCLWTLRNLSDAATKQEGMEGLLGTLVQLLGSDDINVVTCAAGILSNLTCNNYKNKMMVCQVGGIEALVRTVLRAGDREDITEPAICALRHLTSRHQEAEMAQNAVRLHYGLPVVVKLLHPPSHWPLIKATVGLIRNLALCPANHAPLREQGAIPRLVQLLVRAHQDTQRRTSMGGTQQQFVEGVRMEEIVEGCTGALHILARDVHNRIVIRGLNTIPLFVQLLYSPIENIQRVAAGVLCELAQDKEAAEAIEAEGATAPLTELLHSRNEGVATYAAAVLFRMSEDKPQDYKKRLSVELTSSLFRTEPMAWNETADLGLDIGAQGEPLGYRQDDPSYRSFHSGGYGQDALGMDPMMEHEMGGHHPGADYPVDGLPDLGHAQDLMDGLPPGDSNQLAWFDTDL

[2] = molecular target: T2, beta-catenin/TCF4 engagement (Homo sapiens, UniProt P35222); experiment: Nano-BRET target engagement assay (B-cat-Halo & TCF4-Luc in HEK293 cells); assay type: cell-based; details: absolute IC50; read-out: NanoBRET Abs IC50
T2 construct: expressed in transfected cells; host or cells: HEK293
T2 sequence (P35222 1-781): T1 sequence (P35222 1-781)

IC50 [1] | IC50 [2] | SMILES
13 nM | 11600 nM | CC(=O)N1CCC[C@]12CC=CCCCC1(CCCC=CCCCCCC[C@@](C)(C(=O)N[C@@H](Cc3ccccc3)C(=O)N[C@@H](Cc3csc4ccccc34)C(=O)N[C@@H](CCC(N)=O)C(N)=O)NC(=O)[C@H](CCC(N)=O)NC(=O)[C@H](Cc3ccccc3)NC(=O)[C@H](C)NC(=O)[C@H](C)NC(=O)[C@H](CCC(=O)O)NC(=O)[C@H](CC(=O)O)NC1=O)NC(=O)[C@H](Cc1ccccc1)NC(=O)[C@H](CC(=O)O)NC2=O (stereo partly drawn) [I-1549, Ac-PL3-Asp-Phe-B5-Asp-Glu-Ala-Ala-Phe-Gln-S8-Phe-BztA-Gln-NH2]
22 nM | 15300 nM | CC(=O)N1CCC[C@]12CC=CCCCC1(CCCC=CCCCCCC[C@@](C)(C(=O)N[C@@H](Cc3ccccc3)C(=O)N[C@@H](Cc3csc4ccccc34)C(=O)N[C@@H](CCC(N)=O)C(N)=O)NC(=O)[C@H](CC(C)C)NC(=O)[C@H](Cc3ccccc3)NC(=O)[C@H](C)NC(=O)[C@H](C)NC(=O)[C@H](CCC(=O)O)NC(=O)[C@H](CC(=O)O)NC1=O)NC(=O)[C@H](Cc1ccccc1)NC(=O)[C@H](CC(=O)O)NC2=O (stereo partly drawn) [I-1550, Ac-PL3-Asp-Phe-B5-Asp-Glu-Ala-Ala-Phe-Leu-S8-Phe-BztA-Gln-NH2]
16 nM | 19800 nM | CC(=O)N1CCC[C@]12CC=CCCCC1(CCCC=CCCCCCC[C@@](C)(C(=O)N[C@@H](Cc3ccccc3)C(=O)N[C@@H](Cc3csc4ccccc34)C(=O)N[C@@H](CCC(N)=O)C(N)=O)NC(=O)[C@H](CCO)NC(=O)[C@H](Cc3ccccc3)NC(=O)[C@H](C)NC(=O)[C@H](C)NC(=O)[C@H](CCC(=O)O)NC(=O)[C@H](CC(=O)O)NC1=O)NC(=O)[C@H](Cc1ccccc1)NC(=O)[C@H](CC(=O)O)NC2=O (stereo partly drawn) [I-1551, Ac-PL3-Asp-Phe-B5-Asp-Glu-Ala-Ala-Phe-Hse-S8-Phe-BztA-Gln-NH2]
56 nM | > 20000 nM | CC(=O)N1CCC[C@]12CC=CCCCC1(CCCC=CCCCCCC[C@@](C)(C(=O)N[C@@H](Cc3ccccc3)C(=O)N[C@@H](Cc3csc4ccccc34)C(=O)N[C@@H](CCC(N)=O)C(N)=O)NC(=O)[C@H](CCC(N)=O)NC(=O)[C@H](Cc3ccccc3)NC(=O)[C@H](C)NC(=O)[C@H](C)NC(=O)[C@H](CCC(=O)O)NC(=O)[C@H](CC(=O)O)NC1=O)NC(=O)[C@H](CCCCN)NC(=O)[C@H](CC(=O)O)NC2=O (stereo partly drawn) [I-1552, Ac-PL3-Asp-Lys-B5-Asp-Glu-Ala-Ala-Phe-Gln-S8-Phe-BztA-Gln-NH2]
133 nM | > 20000 nM | CC(=O)N1CCC[C@]12CC=CCCCC1(CCCC=CCCCCCC[C@@](C)(C(=O)N[C@@H](Cc3ccccc3)C(=O)N[C@@H](Cc3csc4ccccc34)C(=O)N[C@@H](CCC(N)=O)C(N)=O)NC(=O)[C@H](CC(C)C)NC(=O)[C@H](Cc3ccccc3)NC(=O)[C@H](C)NC(=O)[C@H](C)NC(=O)[C@H](CCC(=O)O)NC(=O)[C@H](CC(=O)O)NC1=O)NC(=O)[C@H](CCCCN)NC(=O)[C@H](CC(=O)O)NC2=O (stereo partly drawn) [I-1553, Ac-PL3-Asp-Lys-B5-Asp-Glu-Ala-Ala-Phe-Leu-S8-Phe-BztA-Gln-NH2]
63 nM | > 20000 nM | CC(=O)N1CCC[C@]12CC=CCCCC1(CCCC=CCCCCCC[C@@](C)(C(=O)N[C@@H](Cc3ccccc3)C(=O)N[C@@H](Cc3csc4ccccc34)C(=O)N[C@@H](CCC(N)=O)C(N)=O)NC(=O)[C@H](CCO)NC(=O)[C@H](Cc3ccccc3)NC(=O)[C@H](C)NC(=O)[C@H](C)NC(=O)[C@H](CCC(=O)O)NC(=O)[C@H](CC(=O)O)NC1=O)NC(=O)[C@H](CCCCN)NC(=O)[C@H](CC(=O)O)NC2=O (stereo partly drawn) [I-1554, Ac-PL3-Asp-Lys-B5-Asp-Glu-Ala-Ala-Phe-Hse-S8-Phe-BztA-Gln-NH2]
180 nM | 29300 nM | CC(=O)N1CCC[C@]12CC=CCCCC1(CCCC=CCCCOC(=O)N3CC[C@@](C(=O)N[C@@H](Cc4ccsc4)C(=O)N[C@@H](Cc4csc5ccccc45)C(=O)N[C@@H](CCC(N)=O)C(N)=O)(C3)NC(=O)[C@H](CC(N)=O)NC(=O)[C@H](Cc3ccccc3)NC(=O)[C@H](C)NC(=O)[C@H](C)NC(=O)[C@H](CC(N)=O)NC(=O)[C@H](CC(N)=O)NC1=O)NC(=O)[C@H](CC(C)(C)C)NC(=O)[C@H](CC(=O)O)NC2=O (stereo partly drawn) [I-1555, Ac-PL3-Asp-Npg-B5-Asn-Asn-Ala-Ala-Phe-Asn-PyrS2-3Thi-BztA-Gln-NH2]
385 nM | > 20000 nM | CC(=O)N1CCC[C@]12CC=CCCCC1(CCCC=CCCCOC(=O)N3CC[C@@](C(=O)N[C@@H](Cc4ccsc4)C(=O)N[C@@H](Cc4csc5ccccc45)C(=O)N[C@@H](CCC(N)=O)C(N)=O)(C3)NC(=O)[C@H](CC(N)=O)NC(=O)[C@H](Cc3ccccc3)NC(=O)[C@H](C)NC(=O)[C@H](C)NC(=O)[C@H](CC(N)=O)NC(=O)[C@H](CC(N)=O)NC1=O)NC(=O)[C@H](C)NC(=O)[C@H](CC(=O)O)NC2=O (stereo partly drawn) [I-1556, Ac-PL3-Asp-Ala-B5-Asn-Asn-Ala-Ala-Phe-Asn-PyrS2-3Thi-BztA-Gln-NH2]
342 nM | > 20000 nM | CC(=O)N1CCC[C@]12CC=CCCCC1(CCCC=CCCCOC(=O)N3CC[C@@](C(=O)N[C@@H](Cc4ccsc4)C(=O)N[C@@H](Cc4csc5ccccc45)C(=O)N[C@@H](CCC(N)=O)C(N)=O)(C3)NC(=O)[C@H](CC(C)C)NC(=O)[C@H](Cc3ccccc3)NC(=O)[C@H](C)NC(=O)[C@H](C)NC(=O)[C@H](CC(N)=O)NC(=O)[C@H](CC(N)=O)NC1=O)NC(=O)[C@H](CC(C)(C)C)NC(=O)[C@H](CC(=O)O)NC2=O (stereo partly drawn) [I-1557, Ac-PL3-Asp-Npg-B5-Asn-Asn-Ala-Ala-Phe-Leu-PyrS2-3Thi-BztA-Gln-NH2]
122 nM | > 20000 nM | CC(=O)N1CCC[C@]12CC=CCCCC1(CCCC=CCCCOC(=O)N3CC[C@@](C(=O)N[C@@H](Cc4ccsc4)C(=O)N[C@@H](Cc4csc5ccccc45)C(=O)N[C@@H](CCC(N)=O)C(N)=O)(C3)NC(=O)[C@H](CC(N)=O)NC(=O)[C@H](Cc3ccccc3)NC(=O)[C@H](C)NC(=O)[C@H](C)NC(=O)[C@H]([C@@H](C)O)NC(=O)[C@H](CC(N)=O)NC1=O)NC(=O)[C@H](CC(C)(C)C)NC(=O)[C@H](CC(=O)O)NC2=O (stereo partly drawn) [I-1564, Ac-PL3-Asp-Npg-B5-Asn-Thr-Ala-Ala-Phe-Asn-PyrS2-3Thi-BztA-Gln-NH2]
148 nM | > 20000 nM | CC(=O)N1CCC[C@]12CC=CCCCC1(CCCC=CCCCOC(=O)N3CC[C@@](C(=O)N[C@@H](Cc4ccsc4)C(=O)N[C@@H](Cc4csc5ccccc45)C(=O)N[C@@H](CCC(N)=O)C(N)=O)(C3)NC(=O)[C@H](CC(N)=O)NC(=O)[C@H](Cc3ccccc3)NC(=O)[C@H](C)NC(=O)[C@H](C)NC(=O)[C@H]([C@@H](C)O)NC(=O)[C@H](CC(N)=O)NC1=O)NC(=O)[C@H](CC(C)(C)C)NC(=O)[C@H](CC(=O)O)NC2=O (stereo partly drawn) [I-1565, Ac-PL3-Asp-Npg-B5-Asn-Thr-Ala-Ala-Phe-Asn-PyrS2-3Thi-BztA-Gln-NH2]
231 nM | > 20000 nM | CC(=O)N1CCC[C@]12CC=CCCCC1(CCCC=CCCCOC(=O)N3CC[C@@](C(=O)N[C@@H](Cc4ccsc4)C(=O)N[C@@H](Cc4csc5ccccc45)C(=O)N[C@@H](CCC(N)=O)C(N)=O)(C3)NC(=O)[C@H](CC(N)=O)NC(=O)[C@H](Cc3ccccc3)NC(=O)[C@H](C)NC(=O)[C@H](C)NC(=O)[C@H](CCC(N)=O)NC(=O)[C@H](CC(N)=O)NC1=O)NC(=O)[C@H](CC(C)(C)C)NC(=O)[C@H](CC(=O)O)NC2=O (stereo partly drawn) [I-1566, Ac-PL3-Asp-Npg-B5-Asn-Gln-Ala-Ala-Phe-Asn-PyrS2-3Thi-BztA-Gln-NH2]
182 nM | > 20000 nM | CC(=O)N1CCC[C@]12CC=CCCCC1(CCCC=CCCCOC(=O)N3CC[C@@](C(=O)N[C@@H](Cc4ccsc4)C(=O)N[C@@H](Cc4csc5ccccc45)C(=O)N[C@@H](CCC(N)=O)C(N)=O)(C3)NC(=O)[C@H](CC(N)=O)NC(=O)[C@H](Cc3ccccc3)NC(=O)[C@H](C)NC(=O)[C@H](C)NC(=O)[C@H](CCC(N)=O)NC(=O)[C@H](CC(N)=O)NC1=O)NC(=O)[C@H](CC(C)(C)C)NC(=O)[C@H](CC(=O)O)NC2=O (stereo partly drawn) [I-1567, Ac-PL3-Asp-Npg-B5-Asn-Gln-Ala-Ala-Phe-Asn-PyrS2-3Thi-BztA-Gln-NH2]
20 nM | > 20000 nM | CC(=O)N1CCC[C@]12CC=CCCCC1(CCCC=CCCCOC(=O)N3CC[C@@](C(=O)N[C@@H](Cc4ccccc4Cl)C(=O)N[C@@H](Cc4csc5ccccc45)C(=O)N[C@@H](CCC(N)=O)C(N)=O)(C3)NC(=O)[C@H](CC(N)=O)NC(=O)[C@H](Cc3ccccc3)NC(=O)[C@H](C)NC(=O)[C@H](C)NC(=O)[C@H](CNCC(=O)O)NC(=O)[C@H](CC(=O)O)NC1=O)NC(=O)[C@H](CC(C)(C)C)NC(=O)[C@H](CC(=O)O)NC2=O (stereo partly drawn) [I-1572, Ac-PL3-Asp-Npg-B5-Asp-GA-Ala-Ala-Phe-Asn-PyrS2-2C1F-BztA-Gln-NH2]
